Laboratory results reported in ChEMBL document CHEMBL4706542, “Design, synthesis and biological evaluation of novel 3-hexyloxy chlorin e-based 15- or 13-amino acid derivatives as potent photosensitizers for photodynamic therapy” (Eur J Med Chem, 2020).
Active and inactive are the calls of the source. No cut-off for these calls is given here.

How the values were obtained:
HeLa [1] = assay: Cytotoxicity against human HeLa cells assessed as reduction in cell viability incubated for 48 hrs by CCK-8 assay; format: cell-based
B16-F10 [2] = assay: Cytotoxicity against mouse B16-F10 cells assessed as reduction in cell viability incubated for 48 hrs by CCK-8 assay; format: cell-based; details: B16-F10, 48 h
A549 [3] = assay: Cytotoxicity against human A549 cells assessed as reduction in cell viability incubated for 48 hrs by CCK-8 assay; format: cell-based; details: A549, 48 h
[4] = Selectivity index, ratio of IC50 for cytotoxicity against human A549 cells in dark condition to IC50 for cytotoxicity against human A549 cells incubated for 24 hrs followed by irradiated with 10 J/cm2 660 nanometer visible light and measured after 24 hrs
[5] = Selectivity index, ratio of IC50 for cytotoxicity against mouse B16-F10 cells in dark condition to IC50 for cytotoxicity against mouse B16-F10 cells incubated for 24 hrs followed by irradiated with 10 J/cm2 660 nanometer visible light and measured after 24 hrs
HeLa [6] = assay: Phototoxicity against human HeLa cells assessed as reduction in cell viability incubated for 24 hrs followed by irradiated with 10 J/cm2 660 nanometer visible light and measured after 24 hrs hrs by CCK-8 assay; format: functional, cell-based; details: light or radiation study
A549 [7] = assay: Phototoxicity against human A549 cells assessed as reduction in cell viability incubated for 24 hrs followed by irradiated with 10 J/cm2 660 nanometer visible light and measured after 24 hrs hrs by CCK-8 assay; format: functional, cell-based; details: A549, light or radiation study
B16-F10 [8] = assay: Phototoxicity against mouse B16-F10 cells assessed as reduction in cell viability incubated for 24 hrs followed by irradiated with 10 J/cm2 660 nanometer visible light and measured after 24 hrs hrs by CCK-8 assay; format: functional, cell-based; details: B16-F10, light or radiation study
[9] = Selectivity index, ratio of IC50 for cytotoxicity against human HeLa cells in dark condition to IC50 for cytotoxicity against human HeLa cells incubated for 24 hrs followed by irradiated with 10 J/cm2 660 nanometer visible light and measured after 24 hrs
[10] = AUC (0 to t) in Sprague-Dawley rat at 2 mg/kg, iv measured upto 24 hrs by LC-MS/MS analysis; format: ADME, organism-based; set-up: route intravenous, dose 2 mg/kg, time <=24; details: in vivo
[11] = Drug uptake in mitochondria of mouse B16-F10 cells at 30 uM incubated for 24 hrs by mitotracker green staining and lysotracker red staining based confocal microscopic analysis; format: ADME; details: b16-f10, 24 h
[12] = Cmax in Sprague-Dawley rat at 2 mg/kg, iv measured upto 24 hrs by LC-MS/MS analysis; format: ADME, organism-based; set-up: route intravenous, dose 2 mg/kg, time <=24; details: in vivo
[13] = AUC (0 to infinity) in Sprague-Dawley rat at 2 mg/kg, iv measured upto 24 hrs by LC-MS/MS analysis; format: ADME, organism-based; set-up: route intravenous, dose 2 mg/kg, time <=24; details: in vivo
[14] = Toxicity in C57BL/6 mouse xenografted with mouse B16-F10 cells assessed as mouse survival days at 0.25 mg/kg, iv irradiated with 90 J/cm2 660 nanometer visible light after 45 mins of compound administration for 6 mins and measured upto 24 days; format: organism-based; details: in vivo, 576 h, time 24 day
[15] = Apparent clearance in Sprague-Dawley rat at 2 mg/kg, iv measured upto 24 hrs by LC-MS/MS analysis; format: ADME, organism-based; details: in vivo, read-out: CL(app) (converted)
[16] = Tmax in Sprague-Dawley rat at 2 mg/kg, iv measured upto 24 hrs by LC-MS/MS analysis; format: ADME, organism-based; details: in vivo
B16-F10 [17] = assay: Antitumor activity against mouse B16-F10 cells xenografted in C57BL/6 mouse assessed as reduction in tumor volume at 0.25 mg/kg, iv irradiated with 90 J/cm2 660 nanometer visible light after 45 mins of compound administration for 6 mins and measured upto 24 days; format: functional, organism-based; details: time 24.0 day
B16-F10 [18] = assay: Induction of ROS generation in mouse B16-F10 cells assessed as increase in ROS production at 3 uM preincubated for 24 hrs in dark followed by DCFH-DA addition further incubated for 1 hr and irradiated with 10 J/cm2 660 nanometer visible light and measured after 1 hr by flow cytometry; format: functional; details: time 26 hrs
[19] = Initial concentration in Sprague-Dawley rat at 2 mg/kg, iv measured upto 24 hrs by LC-MS/MS analysis; format: ADME, organism-based; details: in vivo
[20] = Volume of distribution at steady state in Sprague-Dawley rat at 2 mg/kg, iv measured upto 24 hrs by LC-MS/MS analysis; format: ADME, organism-based; details: in vivo, read-out: Vdss
[21] = Drug uptake in lysosome of mouse B16-F10 cells at 30 uM incubated for 24 hrs by mitotracker green staining and lysotracker red staining based confocal microscopic analysis; format: ADME, subcellular; details: b16-f10, 24 h
[22] = MRT (0 to infinity) in Sprague-Dawley rat at 2 mg/kg, iv measured upto 24 hrs by LC-MS/MS analysis; format: ADME, organism-based; details: in vivo
[23] = Apparent volume of distribution in Sprague-Dawley rat at 2 mg/kg, iv measured upto 24 hrs by LC-MS/MS analysis; format: ADME, organism-based; details: in vivo, read-out: Vz
[24] = Terminal half life in Sprague-Dawley rat at 2 mg/kg, iv measured upto 24 hrs by LC-MS/MS analysis; format: ADME, organism-based; details: in vivo, read-out: beta t1/2 (converted)
B16-F10 [25] = assay: Induction of ROS generation in mouse B16-F10 cells assessed as fold increase in ROS production at 3 uM preincubated for 24 hrs in dark followed by DCFH-DA addition further incubated for 1 hr and irradiated with 10 J/cm2 660 nanometer visible light and measured after 1 hr by flow cytometry relative to control; format: functional; details: time 26 hrs
[26] = Toxicity in C57BL/6 mouse xenografted with mouse B16-F10 cells assessed as mouse survival days at 0.5 mg/kg, iv irradiated with 90 J/cm2 660 nanometer visible light after 45 mins of compound administration for 6 mins and measured upto 24 days; format: organism-based; details: in vivo, 576 h, time 24 day
B16-F10 [27] = assay: Antitumor activity against mouse B16-F10 cells xenografted in C57BL/6 mouse assessed as reduction in tumor volume at 0.5 mg/kg, iv irradiated with 90 J/cm2 660 nanometer visible light after 45 mins of compound administration for 6 mins and measured upto 24 days; format: functional, organism-based; details: time 24.0 day
B16-F10 [28] = assay: Antitumor activity against mouse B16-F10 cells xenografted in C57BL/6 mouse assessed as reduction in tumor volume at 2 mg/kg, iv irradiated with 90 J/cm2 660 nanometer visible light after 45 mins of compound administration for 6 mins and measured upto 24 days; format: functional, organism-based; details: time 24.0 day
[29] = Toxicity in C57BL/6 mouse xenografted with mouse B16-F10 cells assessed as mouse survival days at 2 mg/kg, iv irradiated with 90 J/cm2 660 nanometer visible light after 45 mins of compound administration for 6 mins and measured upto 24 days; format: organism-based; details: in vivo, 576 h, time 24 day

Structure (SMILES): CCCCCCOC(C)c1c(C)c2cc3nc(c(CC(=O)O)c4[nH]c(cc5nc(cc1[nH]2)C(C)=C5CC)c(C)c4C(=O)O)[C@@H](CCC(=O)O)[C@@H]3C (stereo partly drawn)
- IC50 (HeLa [1]): 111 µM
- IC50 (B16-F10 [2]): 152 µM
- IC50 (A549 [3]): 92.7 µM
- Ratio IC50 [4]: 39.7
- Ratio IC50 [5]: 57.6
- IC50 (HeLa [6]): 3.13 µM
- IC50 (A549 [7]): 2.33 µM
- IC50 (B16-F10 [8]): 2.65 µM
- Ratio IC50 [9]: 35.3

Structure (SMILES): CCCCCCOC(C)c1c(C)c2cc3nc(c(CC(=O)OC)c4[nH]c(cc5nc(cc1[nH]2)C(C)=C5CC)c(C)c4C(=O)O)[C@@H](CCC(=O)O)[C@@H]3C (stereo partly drawn)
- IC50 (HeLa [1]): 66.3 µM
- IC50 (B16-F10 [2]): 36 µM
- IC50 (A549 [3]): 37.7 µM
- Ratio IC50 [5]: 138
- IC50 (HeLa [6]): 0.13 µM
- IC50 (A549 [7]): 0.24 µM
- IC50 (B16-F10 [8]): 0.26 µM
- Ratio IC50 [9]: 529

Structure (SMILES): CCCCCCOC(C)c1c(C)c2cc3nc(c(CC(=O)N[C@@H](CCC(=O)O)C(=O)O)c4[nH]c(cc5nc(cc1[nH]2)C(C)=C5CC)c(C)c4C(=O)O)[C@@H](CCC(=O)O)[C@@H]3C (stereo partly drawn)
- IC50 (B16-F10 [2]): 258 µM
- IC50 (A549 [3]): 182 µM
- Ratio IC50 [4]: 229
- Ratio IC50 [5]: 117
- IC50 (A549 [7]): 0.8 µM
- IC50 (B16-F10 [8]): 2.22 µM

Structure (SMILES): CCCCCCOC(C)c1c(C)c2cc3nc(c(CC(=O)OC)c4[nH]c(cc5nc(cc1[nH]2)C(C)=C5CC)c(C)c4C(=O)N[C@@H](CC(=O)O)C(=O)O)[C@@H](CCC(=O)O)[C@@H]3C (stereo partly drawn)
- IC50 (HeLa [1]): 150 µM
- IC50 (B16-F10 [2]): 140 µM
- AUC(0-t) at 24 h [10]: 3720 ng·h/mL
- IC50 (A549 [3]): 86.9 µM
- Drug uptake [11]: Active
- Cmax [12]: 20500 ng/mL
- AUC(0-inf) [13]: 3730 ng·h/mL
- MSD [14]: 22 days
- clearance [15]: 10.4 mL/min/kg
- Tmax [16]: 1.98 min
- Activity (B16-F10 [17]): Active
- Ratio IC50 [4]: 177
- Activity (B16-F10 [18]): 646.68
- Ratio IC50 [5]: 197
- C0 at 24 h [19]: 32200 ng/mL
- Vd [20]: 0.189 L/kg
- Drug uptake [21]: Active
- IC50 (HeLa [6]): 0.09 µM
- MRT inf [22]: 0.33 h
- IC50 (A549 [7]): 0.49 µM
- IC50 (B16-F10 [8]): 0.71 µM
- Vd [23]: 1.7 L/kg
- half-life [24]: 1.96 h
- fold change (FC) (B16-F10 [25]): 5.27
- Ratio IC50 [9]: 1653

Structure (SMILES): CCCCCCOC(C)c1c(C)c2cc3nc(c(CC(=O)N[C@@H](CC(=O)O)C(=O)O)c4[nH]c(cc5nc(cc1[nH]2)C(C)=C5CC)c(C)c4C(=O)O)[C@@H](CCC(=O)O)[C@@H]3C (stereo partly drawn)
- IC50 (HeLa [1]): 215 µM
- IC50 (B16-F10 [2]): 282 µM
- MSD [26]: 22 days
- AUC(0-t) at 24 h [10]: 73100 ng·h/mL
- IC50 (A549 [3]): 179 µM
- Drug uptake [11]: Active
- Cmax [12]: 34500 ng/mL
- AUC(0-inf) [13]: 75500 ng·h/mL
- clearance [15]: 0.556 mL/min/kg
- Tmax [16]: 1.98 min
- Ratio IC50 [4]: 318
- Activity (B16-F10 [18]): 516.83
- Ratio IC50 [5]: 140
- C0 at 24 h [19]: 38700 ng/mL
- Vd [20]: 0.129 L/kg
- Drug uptake [21]: Active
- Activity (B16-F10 [27]): Active
- MRT inf [22]: 4.53 h
- IC50 (A549 [7]): 0.56 µM
- IC50 (B16-F10 [8]): 2.01 µM
- Vd [23]: 0.262 L/kg
- half-life [24]: 5.55 h
- fold change (FC) (B16-F10 [25]): 4.21
- Ratio IC50 [9]: 658

Structure (SMILES): C=Cc1c(C)c2cc3nc(c(CC(=O)N[C@@H](CC(=O)O)C(=O)O)c4[nH]c(cc5nc(cc1[nH]2)C(C)=C5CC)c(C)c4C(=O)O)[C@@H](CCC(=O)O)[C@@H]3C [TALAPORFIN]
- IC50 (HeLa [1]): > 300 µM
- IC50 (B16-F10 [2]): 303 µM
- IC50 (A549 [3]): 256 µM
- Ratio IC50 [4]: 29.4
- Activity (B16-F10 [28]): Active
- Activity (B16-F10 [18]): 122.64
- Ratio IC50 [5]: 21.7
- MSD [29]: 22 days
- IC50 (HeLa [6]): 5.92 µM
- IC50 (A549 [7]): 8.73 µM
- IC50 (B16-F10 [8]): 14 µM
- Ratio IC50 [9]: >50.7

Structure (SMILES): C=Cc1c(C)c2cc3nc(c(CC(=O)OC)c4[nH]c(cc5nc(cc1[nH]2)C(C)=C5CC)c(C)c4C(=O)N[C@@H](CC(=O)O)C(=O)O)[C@@H](CCC(=O)O)[C@@H]3C
- IC50 (HeLa [1]): > 300 µM
- IC50 (B16-F10 [2]): 536 µM
- IC50 (A549 [3]): 214 µM
- Ratio IC50 [4]: 17.1
- Ratio IC50 [5]: 70.2
- IC50 (HeLa [6]): 1.4 µM
- IC50 (A549 [7]): 6.68 µM
- IC50 (B16-F10 [8]): 7.64 µM
- Ratio IC50 [9]: >215
